Literature values as cited in patent publication US12396965B2, “Putrescine topical barrier formulation” (VIVIER CANADA INC., priority 2017, dated 2025).

What was measured:
[1] = biological target: fibroblast tissue transglutaminase (Homo sapiens, UniProt P21980); conditions: in vitro and in vivo; topical; compared to controls
epidermis of eroded skin = conditions: animals and human, topical

Chain of fibroblast tissue transglutaminase (P21980 whole entry): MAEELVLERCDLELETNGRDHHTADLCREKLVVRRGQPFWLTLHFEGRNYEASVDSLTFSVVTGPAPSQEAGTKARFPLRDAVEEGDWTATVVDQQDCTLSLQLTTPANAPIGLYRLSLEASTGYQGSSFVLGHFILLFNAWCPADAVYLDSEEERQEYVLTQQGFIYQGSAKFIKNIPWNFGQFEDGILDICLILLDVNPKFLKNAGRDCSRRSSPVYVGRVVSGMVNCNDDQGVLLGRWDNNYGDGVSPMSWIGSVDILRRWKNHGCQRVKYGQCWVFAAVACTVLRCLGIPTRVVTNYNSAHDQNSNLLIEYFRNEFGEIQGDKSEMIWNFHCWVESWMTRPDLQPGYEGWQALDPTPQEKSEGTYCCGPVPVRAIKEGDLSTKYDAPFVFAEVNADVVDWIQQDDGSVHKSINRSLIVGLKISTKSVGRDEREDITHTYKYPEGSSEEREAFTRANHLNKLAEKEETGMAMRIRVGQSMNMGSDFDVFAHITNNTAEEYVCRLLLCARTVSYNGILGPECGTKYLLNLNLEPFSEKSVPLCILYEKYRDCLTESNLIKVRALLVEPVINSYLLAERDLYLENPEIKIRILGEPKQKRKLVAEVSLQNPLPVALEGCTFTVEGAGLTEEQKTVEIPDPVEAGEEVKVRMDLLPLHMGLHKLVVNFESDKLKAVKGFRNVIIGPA

collagen cross-linking [1]: reduce collagen cross-linking
Compound: NCCCCN [Putrescine, 1,4-diaminobutane]
barrier function of the epidermis and thickness of the stratum lucidum / inner strata of human epidermis (epidermis of eroded skin): increasing its barrier function as well as the thickness of the stratum lucidum
